The text below walks through data of US20070281988A1, “Combination Therapy for Vascular Complications Associated with Hyperglycemia” (priority 2004, published 2007).

Common to all, as to assay type: in vivo, rat
One assay relates to sciatic nerve. The experiment in a line: Motor nerve conduction velocity (sciatic nerve) in streptozotocin-diabetic rats. The conditions noted are these: STZ-diabetic rats, lovastatin 5.5 mg/kg; for MNCV (motor nerve conduction velocity): 2-week treatment after 6 weeks untreated diabetes, ruboxistaurin 0.25 mg/kg, mean ± SEM; for correction of diabetic deficit in motor conduction velocity: individual doses: ruboxistaurin 0.25 mg/kg. As to the method: (§1) Diabetes is induced in mature (19 week old) male Sprague-Dawley by streptozotocin injection (40-45 mg/kg i.p.). The diabetic state is monitored weekly using commercially available test strips for blood (tail vein) and urine glucose levels. Body weight is also be monitored daily. The criteria for the diabetic state are; blood glucose>19.9 mM, glycosuria, and no evidence of body weight gain. After 6 weeks of untreated diabetes, drugs are administered for a 2-week period.
(§2) In final experiments, rats are anaesthetized with thiobutabarbital (50-100 mg kg^−1 i.p.). The trachea is cannulated for artificial respiration. As described in Cameron N E, Cotter M A, Robertson S (1989), “The effect of aldose reductase inhibition on the pattern of nerve conduction deficits in diabetic rats.” Q. J. Exp. Physiol. 74:917-926; and Cameron N E, Cotter M A, Robertson S (1991), “Effects of essential fatty acid supplementation on peripheral nerve and skeletal muscle function and capillarization in streptozotocin diabetic rats.” Diabetes 40:532-539, the sciatic nerve is exposed between the sciatic notch and knee. Bipolar stimulating electrodes are placed close to the nerve at the notch and knee. A concentric bipolar electrode is inserted into tibialis anterior muscle to monitor evoked electromyographic (EMG) activity. Potentials from each stimulating site are averaged 8 times. Motor conduction velocity is calculated by dividing the distance between stimulating electrodes by the average latency difference between the onset of EMG potentials evoked from the 2 sites. Nerve temperature is monitored using a thermocouple probe, and maintained in the range 36-38° C. by radiant heat. Body temperature is also maintained around 37° C. using a heated blanket. Sensory conduction velocity is measured for sensory saphenous nerve between groin and mid calf in a similar fashion, except that direct nerve evoked potentials are recorded at the ankle using a unipolar platinum hook electrode.

In the next assay the test system is sensory saphenous nerve. Nature of the assay: Sensory nerve conduction velocity (saphenous nerve) in streptozotocin-diabetic rats. As to conditions: STZ-diabetic rats, lovastatin 5.5 mg/kg; for SNCV (sensory nerve conduction velocity): 2-week treatment after 6 weeks untreated diabetes, ruboxistaurin 0.25 mg/kg, mean ± SEM; for correction of diabetic deficit in sensory conduction velocity: individual doses: ruboxistaurin 0.25 mg/kg. The protocol:
as §1, §2

Assay [1] relates to sciatic nerve endoneurium. Nature of the assay: Sciatic endoneurial blood flow by microelectrode polarography and hydrogen clearance in streptozotocin-diabetic rats. The conditions noted are these: STZ-diabetic rats, ruboxistaurin 0.25 mg/kg, lovastatin 5.5 mg/kg, mean ± SEM; for Blood Flow (sciatic endoneurial nutritive): 2-week treatment after 6 weeks untreated diabetes; for Vascular Conductance: blood flow divided by mean arterial blood pressure, 2-week treatment. As to the method:
as §1
Sciatic endoneurial blood flow is estimated in the limb contralateral to that for conduction velocity measurements by microelectrode polarography and hydrogen clearance. Day T J, Lagerlund T D, Low P A (1989), “Analysis of H2 clearance curves used to measure blood flow in rat sciatic nerve,” J Physiol 414:35-54; Cameron N E, Cotter M A, Low P A (1991), “Nerve blood flow in early experimental diabetes in rats: relation to conduction deficits.” Am J Physiol 261:E1-E8; Cameron N E, Cotter M A, Hohman T C (1996), “Interactions between essential fatty acid, prostanoid, polyol pathway and nitric oxide mechanisms in the neurovascular deficit of diabetic rats,” Diabetologia 39:172-182. Rats are artificially ventilated. The carotid artery is cannulated to monitor blood pressure. The level of anaesthesia is monitored by observing any reaction of blood pressure to manipulation, and supplementary thiobutabarbital anaesthetic is given as necessary. The sciatic nerve is exposed and the skin around the incision sutured to a metal ring to form a pool filled with mineral oil at 37° C. During recordings, pool temperature is maintained at 35-37° C. by radiant heat. A glass-insulated platinum microelectrode, polarized at 250 mV with respect to a subcutaneous reference electrode, is inserted into the sciatic nerve endoneurium between the sciatic notch and the nerve trifurcation above the knee. 10% H2 would be added to the inspired gas, the proportions of O2 and N2 being adjusted to 20% and 70% respectively. When the H2 current recorded by the electrode has stabilized, indicating equilibrium with arterial blood, the H2 supply is shut off and N2 delivery increased appropriately. H2 clearance is recorded until a stable baseline is reached, which is defined as no systematic decline in electrode current over 5 min. This procedure is then repeated at another nerve site. […] Assuming a tissue density of 1, nutritive blood flow would be calculated as d×100 (ml min^−1 100 g^−1). Vascular conductance is calculated by dividing blood flow by the mean arterial blood pressure over the recording period for that particular clearance curve. […]

Consider `CC[C@H](C)C(=O)O[C@H]1C[C@@H](C)C=C2C=C[C@H](C)[C@H](CC[C@@H]3C[C@@H](O)CC(=O)O3)[C@H]21` [LOV, lovastatin], for which, in the assay on sciatic nerve, the “MNCV (motor nerve conduction velocity)” value stood at 54.0 ± 0.4 m/s and the “correction of diabetic deficit in motor conduction velocity” value is ~20%. For the same compound, in the assay on sensory saphenous nerve, the “SNCV (sensory nerve conduction velocity)” value is reported as 54.6 ± 0.4 m/s and the “correction of diabetic deficit in sensory conduction velocity” value is recorded as ~20%. In assay [1], the “Blood Flow (sciatic endoneurial nutritive)” value amounted to 10.4 ± 0.6 ml/min/100 g and the “Vascular Conductance” value is recorded as 0.091 ± 0.006 ml/min/100 g/mm Hg.
With `CN(C)C[C@@H]1CCn2cc(c3ccccc32)C2=C(C(=O)NC2=O)c2cn(c3ccccc23)CCO1` [LY, (S)-9-((Dimethylamino)methyl)-6,7,10,11-tetrahydro-9H,18H-5,21:12,17-dimethenodibenzo(e,k)pyrrolo(3,4-h)(1,4,13)oxadiaza-cyclohexadecine-18,20(19H)-dione], in the assay with sciatic nerve, the “MNCV (motor nerve conduction velocity)” value stood at 53.5 ± 0.3 m/s and the “correction of diabetic deficit in motor conduction velocity” value is ~20%. In the assay on sensory saphenous nerve, the “SNCV (sensory nerve conduction velocity)” value is reported as 54.8 ± 0.3 m/s and the “correction of diabetic deficit in sensory conduction velocity” value was ~20%. Further, in assay [1], the “Blood Flow (sciatic endoneurial nutritive)” value is reported as 10.7 ± 0.4 ml/min/100 g and the “Vascular Conductance” value is listed as 0.101 ± 0.008 ml/min/100 g/mm Hg.
